Values joined by “and” are separate entries in the source; they are usually repeats but may differ in a detail not shown here. Equal values may be shown once. Read-outs that look alike come from different tables or passages of the source.
Legend:
factor XIIa [1] = molecular target: T1, factor XIIa (Homo sapiens, UniProt P00748); experiment: Inhibition of factor XIIa: kinetics of hydrolysis of chromogenic substrate S2302; format: biochemical; conditions: for inhibition at 30 µM: read-out: Inhibition Activity at 30 µM, %; for IC50: substrate S2302, competitive inhibitor fit; for Selectivity for factor XIIa over coagulation factors Xa and XIa: from IC50 values of Figure 5
T1 sequence (P00748 373-615 limits assumed, other chains not shown): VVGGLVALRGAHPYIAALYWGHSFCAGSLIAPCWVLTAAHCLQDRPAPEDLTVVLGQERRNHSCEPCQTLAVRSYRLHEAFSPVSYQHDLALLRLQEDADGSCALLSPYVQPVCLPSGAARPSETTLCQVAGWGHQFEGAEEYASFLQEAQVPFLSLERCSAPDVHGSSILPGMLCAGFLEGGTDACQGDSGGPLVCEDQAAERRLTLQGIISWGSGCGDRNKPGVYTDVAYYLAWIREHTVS
Description: (§1) The inhibition of factor XIIa by the synthesized compounds was studied by measuring the kinetics of hydrolysis of specific substrate S2302 (Chromogenics, Italy) in the presence of these compounds. A buffer containing 140 mM NaCl, 20 mM HEPES and 0.1% PEG 6000 (pH 7.4) was placed in the wells of a 96-well plate, followed by the addition of factor XIIa (final concentration 5 nM), solution of the test compound in DMSO (final concentration 30 μM), and substrate S2302 (Chromogenics, Italy) (final concentration 200 μM). The DMSO content in the well was no more than 2%. The kinetics of the formation of pNa were measured using a THERMOmax Microplate Reader (Molecular Devices Corporation, USA) by the absorption of light with a wavelength of 405 nm. The initial rate of substrate degradation was determined from the initial slope of the pNa formation curve. The rate of substrate degradation by the enzyme in the presence of the inhibitor was expressed as a percentage relative to the rate of substrate degradation in the absence of the inhibitor. The data obtained were processed using the GraphPad Prism and OriginPro 8 software. Ratio of specific substrate cleavage (S2302 for factor XIIa and S2765 for factor Xa) rate in presence of different inhibitor concentrations to these and the cleavage rate without inhibitor were determined to calculate IC50 values. Received curves (see Figures S18–S22) were approximated with the assumption that these were competitive inhibitors.

factor XIa = factor XIa (Homo sapiens, UniProt P03951); experiment: Inhibition of factor XIa (off-target selectivity testing); format: biochemical; conditions: >30 = no activity at 30 µM, IC50 not measured
Chain of factor XIa (P03951 388-625 limits assumed): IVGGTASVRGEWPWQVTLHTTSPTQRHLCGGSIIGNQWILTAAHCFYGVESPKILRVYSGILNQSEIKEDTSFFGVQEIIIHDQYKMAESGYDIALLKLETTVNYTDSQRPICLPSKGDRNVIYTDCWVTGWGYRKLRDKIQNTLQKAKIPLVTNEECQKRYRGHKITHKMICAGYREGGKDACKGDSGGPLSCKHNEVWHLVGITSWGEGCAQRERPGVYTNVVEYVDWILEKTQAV
Chain of factor XIa (P03951 19-387 partner limits assumed): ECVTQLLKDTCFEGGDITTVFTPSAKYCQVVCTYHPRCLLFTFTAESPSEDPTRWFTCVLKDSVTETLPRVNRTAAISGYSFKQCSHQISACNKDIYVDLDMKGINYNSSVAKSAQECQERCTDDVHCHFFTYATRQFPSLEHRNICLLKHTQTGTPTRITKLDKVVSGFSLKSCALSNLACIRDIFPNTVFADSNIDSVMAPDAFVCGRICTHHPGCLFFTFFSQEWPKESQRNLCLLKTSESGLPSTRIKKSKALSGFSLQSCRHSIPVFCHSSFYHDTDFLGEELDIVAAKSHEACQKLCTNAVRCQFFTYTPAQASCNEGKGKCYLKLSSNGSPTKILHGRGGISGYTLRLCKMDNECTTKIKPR
Description: At the first stage, virtual screening based on docking was carried out by the SOL program and the subsequent calculation of the enthalpy of protein–ligand binding by the PM7+COSMO method for the focused library of compounds selected from the database of druglike substances of the Department of Organic Chemistry of the Voronezh State University (VSU). This library consisted of 59 compounds, which were all previously tested against coagulation factors Xa and XIa. Among them, there were a few confirmed inhibitors of these proteins with micromolar activity. The presence of inhibition data for these off-targets allowed us to use selectivity data after the screening phase and better understand the quality of the identified hit series. Screening and testing the selected compounds from the focused library also helped clarify the threshold values of the scoring function of the SOL program, the binding enthalpy and, accordingly, adjust the screening process for further iterations.Virtual screening with the SOL program was carried out for 326 three-dimensional molecules. The original base of 59 ligands was expanded taking into account a few protomers, isomers, and conformers of these molecules. At the first stage, the selection of compounds was carried out based on the SOL scoring function. […] Note that the SOL scoring value for the docking of the original ligand (PDB ID 6B74) was −5.19 kcal/mol. Thus, the selection criterion covered a wider range of scoring values.
(§2) Figure 5 Structures of four identified inhibitors of the coagulation factor XIIa. IC50 values are shown for three coagulation factors: Xa, XIa, and XIIa. […] So, they are marked with ‘>30’ in a column with activity values. TEXT PRINTED IN THE PICTURE: 30901: IC50, μM: XIIa 19.67±1.31; IC50, μM: XIa > 30.00; IC50, μM: Xa 12.40±0.38 | 41453: IC50, μM: XIIa 25.88±1.77; IC50, μM: XIa > 30.00; IC50, μM: Xa > 30.00 | 225006: IC50, μM: XIIa 7.85±0.34; IC50, μM: XIa > 30.00; IC50, μM: Xa > 30.00 | 225738: IC50, μM: XIIa 12.95±0.32; IC50, μM: XIa > 30.00; IC50, μM: Xa > 30.00

factor Xa = factor Xa (Homo sapiens, UniProt P00742); experiment: Inhibition of factor Xa: cleavage rate of specific substrate S2765; format: biochemical; conditions: >30 = no activity at 30 µM, IC50 not measured
Chain of factor Xa (P00742 235-488 limits assumed): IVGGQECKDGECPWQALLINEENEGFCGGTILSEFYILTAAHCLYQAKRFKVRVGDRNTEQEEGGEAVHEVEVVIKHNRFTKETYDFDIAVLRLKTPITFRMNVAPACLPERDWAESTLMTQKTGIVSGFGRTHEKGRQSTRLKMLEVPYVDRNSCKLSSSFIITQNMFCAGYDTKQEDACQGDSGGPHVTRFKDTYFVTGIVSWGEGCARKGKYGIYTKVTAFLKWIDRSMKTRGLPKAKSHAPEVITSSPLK
Chain of factor Xa (P00742 41-179 partner limits assumed): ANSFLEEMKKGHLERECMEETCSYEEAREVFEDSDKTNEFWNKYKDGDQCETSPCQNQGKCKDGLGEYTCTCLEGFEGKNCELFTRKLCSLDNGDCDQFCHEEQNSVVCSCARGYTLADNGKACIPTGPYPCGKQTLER
Description: as §1, §2

factor XIIa [2] = molecular target: T1, factor XIIa; conditions: read-out: IC50 factor XIIa (aminotriazole-based inhibitors); cited from earlier work
[3] = % of enzyme inhibition at 30 µM, averaged over three measurements

Compound	inhibition at 30 µM (factor XIIa [1]; [3]) [%]	IC50 (factor XIa) [µM]	IC50 (factor Xa) [µM]	IC50 (factor XIIa [1])	further results
COc1cc2c3c(c1)/C(=N/OC(=O)c1ccccc1)C(=O)N3C(C)(C)C=C2C [compound 225746, 8-Methoxy-4,4,6-trimethyl-4H-pyrrolo[3,2,1-ij]quinoline-1,2-dione1-(O-benzoyloxime)]	0				
Nc1c2c(nc3oc(-c4ccccc4Cl)cc13)CCCC2=O [compound 224533, 4-Amino-2-(2-chlorophenyl)-7,8-dihydrofuro[2,3-b]quinolin-5(6H)-one]					inhibition at 30 µM (factor XIIa [1]): 2%
COc1cc2c3c(c1)C(=NNC(=N)N)C(=O)N3C(C)(C)C=C2C [compound 225635, 2-(8-Methoxy-4,4,6-trimethyl-2-oxo-4H-pyrrolo[3,2,1-ij]quinolin-1(2H)-ylidene)hydrazinecarboximidamide]	0				
COC(=O)c1c(C)[nH]c(-c2ccccc2)c1C1C(=O)N2c3c(cc(OC)cc31)C(C)=CC2(C)C (centres unmarked) [compound 225738, methyl 4-(8-methoxy-4,4,6-trimethyl-2-oxo-1,2-dihydro-4H-pyrrolo[3,2,1-ij]quinolin-1-yl)-2-methyl-5-phenyl-1H-pyrrole-3-carboxylate]	> 50	> 30	> 30	13 ± 0.32 µM	Selectivity for factor XIIa over coagulation factors Xa and XIa (factor XIIa [1]): selectively inhibit
COc1ccc(C2C(C#N)=C(N)Oc3c2c(=O)[nH]c2ccccc32)cc1OC (centres unmarked) [compound 38756, 2-Amino-4-(3,4-dimethoxyphenyl)-5-oxo-5,6-dihydro-4H-pyrano[3,2-c]quinoline-3-carbonitrile]	15				
COc1cc2c3c(c1)C(=NNC(=N)N)C(=O)N3C(C)(C)C=C2CN1CCN(c2ccc(F)cc2)CC1 [compound 225638, 2-[6-{[4-(4-Fluorophenyl)piperazin-1-yl]methyl}-8-methoxy-4,4-dimethyl-2-oxo-4H-pyrrolo[3,2,1-ij]quinolin-1(2H)-ylidene]hydrazinecarboximidamide]	27				
Nc1nc(-c2cnc3ccccc3n2)nn1C(=O)c1cccc2ccccc12 [aminotriazole_39b]					IC50 (factor XIIa [2]): 0.007 µM
CC1CCc2nc3oc(-c4ccccc4)cc3c(N)c2C1 (centres unmarked) [compound 224530, 6-Methyl-2-phenyl-5,6,7,8-tetrahydrofuro[2,3-b]quinolin-4-amine]	0				
CC1CC(C)(C)N(C)c2cc3oc(=O)c(-c4cc(=O)[nH]c(N5CCOCC5)n4)cc3cc21 (centres unmarked) [compound 225006, 6,8,8,9-Tetramethyl-3-(2-morpholin-4-yl-6-oxo-1,6-dihydropyrimidin-4-yl)-6,7,8,9-tetrahydro-2H-pyrano[3,2-g]quinolin-2-one]	> 50	> 30	> 30	7.9 µM and 7.85 µM	Selectivity for factor XIIa over coagulation factors Xa and XIa (factor XIIa [1]): selectively inhibit

The next lines start with results.

inhibition at 30 µM (factor XIIa [1]; [3]) [%]	IC50 (factor XIa) [µM]	IC50 (factor Xa) [µM]	IC50 (factor XIIa [1])	Compound	further results
10				CCc1cc2c3c(c1)C1(C(=O)N3C(C)(C)CC2C)C(C#N)=C(N)Oc2c1c(=O)[nH]c1ccccc21 (centres unmarked) [compound 38292, 2-Amino-8’-ethyl-4’,4’,6’-trimethyl-2’,5-dioxo-5,5’,6,6’-tetrahydro-4’H-spiro[pyrano[3,2-c]quinoline-4,1’-pyrrolo[3,2,1-ij]quinoline]-3-carbonitrile]	
	> 30	12.4 ± 0.38	19.7 ± 1.31 µM	COc1cc2c3c(c1)C1(C(=O)N3C(C)(C)CC2C)C(C#N)=C(N)Oc2c1c(=O)oc1ccccc21 (centres unmarked) [compound 30901, 2-amino-8’-methoxy-4’,4’,6’-trimethyl-2’,5-dioxo-5’,6’-dihydro-2’H,4’H,5H-spiro[pyrano[3,2-c]chromene-4,1’-pyrrolo[3,2,1-ij]quinoline]-3-carbonitrile]	
	> 30	> 30	~26 µM and 25.9 µM	CC1(C)CC2(CCCCC2)N2C(=O)C3(NCCc4c3[nH]c3ccccc43)c3cccc1c32 (stereo not drawn) [compound 41453, 6’,6’-Dimethyl-2,3,4,5’,6’,9-hexahydrodispiro[β-carboline-1,1’-pyrrolo[3,2,1-ij]quinoline-4’,1’’-cyclohexan]-2’-one]	Selectivity for factor XIIa over coagulation factors Xa and XIa (factor XIIa [1]): questionable
0				COc1ccc(C(=O)c2cc3cc4c(cc3oc2=O)N(C)C(C)(C)CC4C)cc1 (centres unmarked) [compound 224870, 3-(4-Methoxybenzoyl)-6,8,8,9-tetramethyl-6,7,8,9-tetrahydro-2H-pyrano[3,2-g]quinolin-2-one]	

Reference: PMC8876603, “New Blood Coagulation Factor XIIa Inhibitors: Molecular Modeling, Synthesis, and Experimental Confirmation” (Molecules, 2022)
